Measured values reported in publication PMC8658022, “Towards Property Profiling: SYNTHESIS and SAR Probing of New Tetracyclic Diazaphenothiazine Analogues” (International Journal of Molecular Sciences, 2021).
Converted amounts (≈) assume the structure as drawn.

Tests used:
[1] = tested on: Staphylococcus aureus ATCC 29213; assay: broth dilution micro-method MIC, S. aureus ATCC 29213; assay type: cell-based; settings: ATCC29213, 24 h, 37 °C
Experimental: (§1) The synthesized compounds were evaluated for in vitro antibacterial activity against representatives of multidrug-resistant bacteria and clinical isolates of methicillin-resistant Staphylococcus aureus (MRSA) 63718, SA 630, and SA 3202 that were obtained from the National Institute of Public Health (Prague, Czech Republic). S. aureus ATCC 29213 was used as a reference and quality control strain. Ampicillin (Sigma, St. Louis, MO, USA) was employed as the standard. Prior to testing, each strain was passaged onto nutrient agar (Oxoid, Basingstoke, UK) with 5% of bovine blood, and bacterial inocula were prepared by suspending a small portion of a bacterial colony in sterile phosphate-buffered saline (pH 7.2–7.3). The cell density was adjusted to 0.5 McFarland units using a densitometer (Densi-La-Meter, LIAP, Riga, Latvia). This inoculum was diluted to reach the final concentration of bacterial cells 5 × 10^5 CFU/mL in the wells. […] The final concentrations of the evaluated compounds ranged from 256 to 0.008 μg/mL. The broth dilution micro-method, modified according to the NCCLS (National Committee for Clinical Laboratory Standards) guidelines in Mueller–Hinton (MH) broth, was used to determine the minimum inhibitory concentration (MIC). Drug-free controls, sterility controls, and controls consisting of MH broth and DMSO alone were included. The determination of results was performed visually after 24 h of static incubation in the darkness at 37 °C in an aerobic atmosphere. Each experiment was repeated at least three times.

[2] = tested on: methicillin-resistant S. aureus SA 3202; assay: broth dilution micro-method MIC, MRSA SA 3202; assay type: cell-based; settings: Staphylococcus aureus, clinical isolate, 24 h, 37 °C
Experimental: as §1

[3] = tested on: A549 (human lung carcinoma); assay: WST-1 cell proliferation assay, A549; assay type: cell-based; settings: mean ± std
Experimental: (§2) Compounds were evaluated for their antiproliferative activity using […] cultured cell lines: A549 (human lung carcinoma, ATCC, Manassas, VA, USA), SNB-19 (human glioblastoma, DSMZ, German Collection of Microorganisms and Cell Cultures), T-47D (human breast cancer, ATCC, Manassas, VA, USA) and NHDF (normal human dermal fibroblasts, ATCC, Manassas, VA, USA). The cultured cells were kept at 37 °C and 5% CO2. The cells were seeded (1 × 10^4 cells/well/100 μL DMEM supplemented with 10% FCS and streptomycin and penicillin) using 96-well plates (Corning). Cells were counted in a hemocytometer (Burker chamber) using a phase contrast Olympus IX50 microscope equipped with Sony SSC-DC58 AP camera and Olympus DP10 digital camera.
(§3) The antiproliferative effect of the compounds exerted on cancer and normal cells was determined using the Cell Proliferation Reagent WST-1 assay (Roche Molecular Biochemicals Mannheim, Germany). This assay is based on a colorimetric method using the enzymatic ability of viable cells to cause the bright red-colored stable tetrazolium monosodium salt [2-(4-iodophenyl)-3-(4-nitrophenyl)-5-(2,4-disulfophenyl)–2H-tetra-zolium] to transform into the dark red-colored soluble formazan. […] An increase in the amount of formazan dye formed correlated with the number of metabolically active cells in the culture. The formazan dye produced by metabolically active cells was quantified by absorbance reading at appropriate wavelengths. The examined cells were exposed to the tested compounds (1 mg/mL DMSO stock) for 72 h at various concentrations (0.1 μg/mL–100 μg/mL). The control was performed in order to eliminate the DMSO effect at the concentration used. Cell cultures were incubated with WST-1 (10 μL) for 1 h. The absorbance of the samples was measured against a background control at 450 nm using a microplate reader with a reference wavelength at 600 nm. The obtained results are expressed as the means of at least two independent experiments performed in triplicate. The antiproliferative activity of the tested compounds were compared to cisplatinum. The values of IC50 (a concentration of a compound that is required for 50% inhibition) were calculated from the dose-response relationship with respect to control.

[4] = tested on: methicillin-resistant S. aureus 63718; assay: broth dilution micro-method MIC, MRSA 63718; assay type: cell-based; settings: Staphylococcus aureus, clinical isolate, 24 h, 37 °C
Experimental: as §1

[5] = tested on: T47D (human breast cancer); assay: WST-1 cell proliferation assay, T47D; assay type: cell-based; settings: 72 h exposure, mean ± std
Experimental: as §2, §3

[6] = experimentally determined lipophilicity (logPTLC); assay type: physicochemical; settings: thin-layer chromatography (TLC)
Source text: In order to examine the lipophilic profile of the investigated compounds, the empirically determined logPTLC parameters (see Table 1) were compared with the theoretically approximated lipophilicity coefficients (clogP) using an ensemble of in silico predictors, e.g., clogP, Molinspiration, Osiris, HyperChem 7.0, Sybyl-X, MarvinSketch 15, ACD/ChemSketch 2015, Dragon 6.0, Kowwin, XlogP3, ChemDraw and ACD/Percepta programs. Subsequently, the deduced clogP parameters were cross-compared with the experimental logPTLC and inter-correlated with each other as presented in Figure 5. A good correlation was obtained (r = 0.94) for the MarvinSketch-made clogP values and the empirical logPTLC was recorded, respectively. […] A quite high inter-correlation was observed among the programs for lipophilicity specification. Obviously, some variations in clogP values resulted from different in silico algorithms (atom/fragment- or descriptor-based) implemented in the programs and/or training data employed in the training step [33].

[7] = tested on: NHDF (normal human dermal fibroblasts); assay: WST-1 cell proliferation assay, NHDF normal cells; assay type: cell-based; settings: normal cell line, 72 h exposure, mean ± std
Experimental: as §2, §3

[8] = tested on: methicillin-resistant S. aureus SA 630; assay: broth dilution micro-method MIC, MRSA SA 630; assay type: cell-based; settings: Staphylococcus aureus, clinical isolate, 24 h, 37 °C
Experimental: as §1

[9] = tested on: SNB-19 (human glioblastoma); assay: WST-1 cell proliferation assay, SNB-19; assay type: cell-based; settings: mean ± std
Experimental: as §2, §3

MRSA isolates = assay: broth dilution micro-method MIC, MRSA isolates (pooled statement); assay type: cell-based; settings: Staphylococcus aureus; range over three MRSA isolates and both compounds; read-out: MICs against MRSA isolates
Experimental: as §1, with “The determination of results was performed visually after 24 h of static incubation in the darkness at 37 °C in an aerobic atmosphere. Each experiment was repeated at least three times.” left out

[10] = Homo sapiens, A549, 72 h exposure
[11] = Homo sapiens, SNB-19, 72 h exposure

C[n+]1cc2c(c3ccccc31)Nc1ccc(Br)nc1S2 [3b, 9-bromo-5-methyl-12H-quino[3,4-b]pyrido[5,6-e][1,4]thiazinium chloride]
MIC [1]: 337 µM | MIC [2]: 337 µM | IC50 [3, 10]: 23.8 ± 1.7 µM | MIC [4]: 337 µM | IC50 ([5]; Homo sapiens, T47D): 5.2 ± 0.4 µM | chromatographic logP [6]: 4.8 | IC50 ([7]; Homo sapiens, NHDF): 0.8 ± 0.05 µM | MIC [8]: 337 µM | IC50 [9, 11]: 4.1 ± 0.3 µM

C[n+]1cc2c(c3ccccc31)Nc1ccc(Cl)nc1S2 [3d, 9-chloro-5-methyl-12H-quino[3,4-b]pyrido[5,6-e][1,4]thiazinium chloride]
MIC [1]: 381 µM | MIC [2]: 381 µM | IC50 [3, 10]: 2 ± 0.3 µM | MIC [4]: 381 µM | IC50 ([5]; Homo sapiens, T47D): 2.3 ± 0.3 µM | chromatographic logP [6]: 4.62 | IC50 ([7]; Homo sapiens, NHDF): 7.7 ± 0.5 µM | MIC [8]: 381 µM | IC50 [9, 11]: 1.3 ± 0.1 µM

C[n+]1cc2c(c3ccccc31)Nc1cccnc1S2 [3a, 5-methyl-12H-quino[3,4-b]pyrido[5,6-e][1,4]thiazinium chloride]
MIC [1]: 212 µM | MIC [2]: 212 µM | IC50 [3, 10]: 70.3 ± 9.8 µM | MIC [4]: 212 µM | IC50 ([5]; Homo sapiens, T47D): 46.2 ± 7.1 µM | chromatographic logP [6]: 3.53 | IC50 ([7]; Homo sapiens, NHDF): 21.1 ± 1.5 µM | MIC [8]: 106 µM | IC50 [9, 11]: 132 ± 11.6 µM

C[n+]1cc2c(c3ccccc31)Nc1ccc(I)nc1S2 [3f, 9-iodo-5-methyl-12H-quino[3,4-b]pyrido[5,6-e][1,4]thiazinium chloride]
MIC [1]: 299 µM | MIC [2]: 299 µM | IC50 [3, 10]: 115 ± 10.7 µM | MIC [4]: 299 µM | IC50 ([5]; Homo sapiens, T47D): 128 ± 18.2 µM | chromatographic logP [6]: 5.09 | IC50 ([7]; Homo sapiens, NHDF): 97.4 ± 6.2 µM | MIC [8]: 299 µM | IC50 [9, 11]: 62.5 ± 6.6 µM

Cc1ccnc2c1Nc1c(c[n+](C)c3ccccc13)S2 [3i, 5,11-dimethyl-12H-quino[3,4-b]pyrido[5,6-e][1,4]thiazinium chloride]
MIC [1]: 203 µM | MIC [2]: 203 µM | IC50 [3, 10]: 69.3 ± 5.3 µM | MIC [4]: 203 µM | IC50 ([5]; Homo sapiens, T47D): 18.9 ± 1.4 µM | chromatographic logP [6]: 4.17 | IC50 ([7]; Homo sapiens, NHDF): 0.4 ± 0.07 µM | MIC [8]: 101 µM | IC50 [9, 11]: 22.1 ± 1.5 µM

C[n+]1cc2c(c3ccccc31)Nc1cnccc1S2 [4a, 5-methyl-5H-qujino[3,4-b]pyrido[3,4-e][1,4]thiazinium chloride]
MIC [1]: 424 µM | MIC [2]: 424 µM | IC50 [3, 10]: 30.1 ± 3.4 µM | MIC [4]: 424 µM | IC50 ([5]; Homo sapiens, T47D): 36.8 ± 2.1 µM | chromatographic logP [6]: 2.93 | IC50 ([7]; Homo sapiens, NHDF): 7.5 ± 0.2 µM | MIC [8]: 424 µM | IC50 [9, 11]: 18.7 ± 1.2 µM

CC1(C)S[C@@H]2[C@H](NC(=O)[C@H](N)c3ccccc3)C(=O)N2[C@H]1C(=O)O [AMP, Ampicillin, reference compound]
MIC [1]: 5.72 µM (≈ 2 µg/mL) | MIC [2]: 45.8 µM (≈ 16 µg/mL) | MIC [4]: 45.8 µM (≈ 16 µg/mL) | MIC [8]: 45.8 µM (≈ 16 µg/mL)

Cc1cc(F)nc2c1Nc1c(c[n+](C)c3ccccc13)S2 [3h, 9-fluoro-5,11-dimethyl-12H-quino[3,4-b]pyrido[5,6-e][1,4]thiazinium chloride]
MIC [1]: 383 µM | MIC [2]: 383 µM | IC50 [3, 10]: 15.4 ± 1 µM | MIC [4]: 383 µM | IC50 ([5]; Homo sapiens, T47D): 47.7 ± 2.8 µM | chromatographic logP [6]: 5.72 | IC50 ([7]; Homo sapiens, NHDF): 28.5 ± 4 µM | MIC [8]: 383 µM | IC50 [9, 11]: 126 ± 14.8 µM

Cc1cc(Cl)nc2c1Nc1c(c[n+](C)c3ccccc13)S2 [3g, 9-chloro-5,11-dimethyl-12H-quino[3,4-b]pyrido[5,6-e][1,4]thiazinium chloride]
MIC [1]: > 731 µM | MIC [2]: > 731 µM | IC50 [3, 10]: 20 ± 1.6 µM | MIC [4]: > 731 µM | IC50 ([5]; Homo sapiens, T47D): 26.7 ± 1.6 µM | chromatographic logP [6]: 5.66 | IC50 ([7]; Homo sapiens, NHDF): 3.8 ± 0.3 µM | MIC [8]: > 731 µM | IC50 [9, 11]: 3.5 ± 0.2 µM

N.N.[Cl][Pt][Cl] [cisplatinum, reference compound]
IC50 ([3]; 72 h exposure): 3 ± 0.2 µM | IC50 [5]: 9 ± 0.7 µM | IC50 [7]: 29.9 ± 3.3 µM | IC50 ([9]; 72 h exposure): 16.7 ± 1.3 µM

C[n+]1cc2c(c3ccccc31)Nc1ccc(F)nc1S2 [3e, 9-fluoro-5-methyl-12H-quino[3,4-b]pyrido[5,6-e][1,4]thiazinium chloride]
MIC (MRSA isolates): 12.5 to 42.1 µM | MIC [1]: 50.2 µM | MIC [2]: 25.1 µM | IC50 [3, 10]: 2.1 ± 0.35 µM | MIC [4]: 25.1 µM | IC50 ([5]; Homo sapiens, T47D): 2.8 ± 0.35 µM | chromatographic logP [6]: 4.24 | IC50 ([7]; Homo sapiens, NHDF): 1.1 ± 0.14 µM | MIC [8]: 12.5 µM | IC50 [9, 11]: 0.4 ± 0.08 µM

C[n+]1cc2c(c3ccccc31)Nc1cc(Br)cnc1S2 [3c, 10-bromo-5-methyl-12H-quino[3,4-b]pyrido[5,6-e][1,4]thiazinium chloride]
MIC (MRSA isolates): 12.5 to 42.1 µM | MIC [1]: 42.1 µM | MIC [2]: 42.1 µM | IC50 [3, 10]: 20.6 ± 1.2 µM | MIC [4]: 42.1 µM | IC50 ([5]; Homo sapiens, T47D): 12.2 ± 1.7 µM | chromatographic logP [6]: 4.57 | IC50 ([7]; Homo sapiens, NHDF): 11 ± 1.4 µM | MIC [8]: 21.1 µM | IC50 [9, 11]: 3.4 ± 0.2 µM

COc1ccc2c(n1)Sc1c[n+](C)c3ccccc3c1N2 [3j, 9-methoxy-5-methyl-12H-quino[3,4-b]pyrido[5,6-e][1,4]thiazinium chloride]
MIC [1]: 193 µM | MIC [2]: 193 µM | IC50 [3, 10]: 1.7 ± 0.1 µM | MIC [4]: 193 µM | IC50 ([5]; Homo sapiens, T47D): 8.1 ± 1 µM | chromatographic logP [6]: 4.2 | IC50 ([7]; Homo sapiens, NHDF): 2 ± 0.3 µM | MIC [8]: 96 µM | IC50 [9, 11]: 6.1 ± 0.4 µM
